Reference: patent US12643871B2, “Aryl formamide compound containing chiral sulfur oxide or salt thereof, preparation method, herbicidal composition and use thereof” (Qingdao Kingagroot Chemical Compound Co., Ltd., priority 2019, dated 2026)

Legend:
Type in all cases: in vivo
Rice(Longyang 16) = assay: Comparison experiment (post-emergence), crop safety on direct seeding rice; conditions: for Results of comparison experiment, Rice(Longyang 16) (250 g/ha) / Results of comparison experiment, Rice(Longyang 16) (500 g/ha): 1.5-2 leaf-stage of direct seeding rice variety Longyang 16, 25 DAA
Source text: (§1) The above growth control rates are fresh weight control rates.
(§2) Experiment on weeding effect in post-emergence stage: monocotyledonous and dicotyledonous weed seeds (Descurainia sophia, Capsella bursa-pastoris, Galium aparine, Stellaria media, Lithospermum arvense, Rorippa indica, Alopecurus aequalis, Beckmannia syzigachne, Sclerochloa dura, Phleum paniculatum, Bromus japonicus, Aegilops tauschii, Phalaris arundinacea, Amaranthus retroflexus, Chenopodiaceae, Commelina communis, Sonchus arvensis, convolvulus arvensis, Cirsium setosum, Solanum nigrum, Acalypha australis, Digitaria sanguinalis, Echinochloa crusgalli, Setaria viridis, Setaria glauca, Leptochloa chinensis, Monochoria vaginalis, Sagittaria trifolia, Scirpus juncoides, Cyperus rotundus, Cyperus iria, Cyperus difformis, Fimbristylis, Portulaca oleracea, Xanthium sibiricum, Pharbitis nil) and major crop seeds (wheat, corn, rice, soybean, cotton, oilseed rape, millet, sorghum, potato, sesame, ricinus) were placed in plastic pots filled with soil, then covered with 0.5-2 cm of soil, allowed to grow in a good greenhouse environment. After 2 weeks of sowing, the test plants were treated in the 2 leaf stage. The tested compounds of the present invention were respectively dissolved in acetone, then added with Tween 80 and 1.5 liter/ha of emulsifiable concentrate of methyl oleate as synergist, diluted with a certain amount of water to obtain a solution with a certain concentration, and sprayed with a spray tower onto the plants. After the application, the plants were cultured for 15 days in the greenhouse, and then the experimental results of the weeding were counted. The doses of the used compounds were 500, 250, 125, 60, 30, 15 g/ha, and the averages were obtained by repeating for three times.
(§3) If there is no clear marker, the post-seedling test conditions are the same as above, and the experimental results are shown in Tables 4-7.
Longyang 16 is an important cultivated variety representative of long-grain fragrant rice in northeast China. Long-grain fragrant rice is sensitive to herbicides and prone to drug damage, especially HPPD herbicides such as mesotrione and benzobicylon. […] It was not consistent with the well-known structure-activity relationship that aryloxyphenoxypropionic acid herbicides and phenoxypropionic acid herbicides in effective form have high activity to weeds and heavy damage to crops, and in ineffective form have almost no activity.

Digitaria sanguinalis [1] = assay: Comparison experiment (post-emergence) against racemate / S configuration; conditions: 30 g/ha, 3-4 weeks after sowing, 4-5 leaf-stage of weed, 25DAA
Green Setaria viridis = assay: as above; conditions: for Results of comparison experiment, Green Setaria viridis (60 g/ha): 25DAA
Source text: as §1
as §2, with “After 2 weeks of sowing, the test plants were treated in the 2 leaf stage.” left out, “After the application, the plants were cultured for 15 days in the greenhouse, and then the experimental results of the weeding were counted. The doses of the used compounds were 500, 250, 125, 60, 30, 15 g/ha, and the averages were obtained by repeating for three times.” left out
as §3

Abutilon theophrasti [2] = assay: as above; conditions: 30 g/ha; 3-4 weeks after sowing, 4-5 leaf-stage of weed, 25DAA
Source text: as §1
as §2, with “After 2 weeks of sowing, the test plants were treated in the 2 leaf stage.” left out, “After the application, the plants were cultured for 15 days in the greenhouse, and then the experimental results of the weeding were counted. The doses of the used compounds were 500, 250, 125, 60, 30, 15 g/ha, and the averages were obtained by repeating for three times.” left out
as §3

Leptochloa chinensis [3] = assay: as above; conditions: for Results of comparison experiment, Leptochloa chinensis (60 g/ha) / Results of comparison experiment, Leptochloa chinensis (125 g/ha): 3-4 weeks after sowing, 4-5 leaf-stage of weed; for Results of comparison experiment, Leptochloa chinensis (60 g/ha): 25DAA; for Results of comparison experiment, Leptochloa chinensis (125 g/ha): 25 DAA (Table 5)
Source text: as §1
as §2, with “After 2 weeks of sowing, the test plants were treated in the 2 leaf stage.” left out, “After the application, the plants were cultured for 15 days in the greenhouse, and then the experimental results of the weeding were counted. The doses of the used compounds were 500, 250, 125, 60, 30, 15 g/ha, and the averages were obtained by repeating for three times.” left out
as §3

Alopecurus japonicas = assay: as above; conditions: Table 6, post-seedling test conditions
Source text: as §1, §2, §3

Digitaria sanguinalis [4] = assay: as above; conditions: Table 6, post-seedling test conditions; for pest or weed control at 30 g/ha: Digitaria sanguinalis, post-emergence
Source text: as §1, §2, §3

rice and other crops = assay: Comparison experiment (post-emergence, Tables 4-7), crop safety; conditions: dose of 125, 60, 30, 15 g/ha
Source text: as §1, §2, §3

Amaranthus retroflexus = assay: Weeding effect in post-emergence stage; conditions: 250 g/ha; 2 leaf stage; 15 days after application; fresh weight control rate
Procedure, shortened: (§4)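 Post-emergence spray, 2-leaf stage; doses 500–15 g/ha; acetone + Tween 80 + methyl oleate EC (1.5 L/ha) as synergist. Greenhouse 15 d. Readout: fresh weight control rate graded levels 0–5 (5 = above 85%, 0 = below 5%); triplicate means.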

Abutilon theophrasti [5] = assay: Weeding effect in post-emergence stage; conditions: 250 g/ha; 2 leaf stage; 15 days after application; fresh weight control rate
Procedure, shortened: as §4

Echinochloa crusgali [6] = assay: Weeding effect in post-emergence stage; conditions: 250 g/ha; 2 leaf stage; 15 days after application; fresh weight control rate
Procedure, shortened: as §4

Digitaria sanguinalis [7] = assay: Weeding effect in post-emergence stage; conditions: 250 g/ha; 2 leaf stage; 15 days after application; fresh weight control rate
Procedure, shortened: as §4

Setaria viridis = assay: Weeding effect in post-emergence stage; conditions: 250 g/ha; 2 leaf stage; 15 days after application; fresh weight control rate
Procedure, shortened: as §4

[8] = tested on: key weeds such as Digitaria sanguinalis, Leptochloa chinensis; assay: Comparison experiment (post-emergence, Tables 4-7), herbicidal activity on weeds not listed separately; conditions: dose of 125, 60, 30, 15 g/ha
Procedure, shortened: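 Weeds sown in soil-filled pots, covered with 0.5-2 cm soil and grown in greenhouse; sprayed at 2-leaf stage (2 weeks after sowing) with compound in acetone/Tween 80 plus 1.5 liter/ha methyl oleate concentrate. Doses 500–15 g/ha; fresh weight control rated after 15 days, mean of three repeats.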

Sagittaria trifolia = assay: Weed control effect evaluation in rice field; conditions: 30 g/ha; rice field pot, 14 days after treatment; ALS-inhibitor resistant weed from Heilongjiang
Source text: (§5) The activity level criteria for harmful plant damage (i.e., growth control rate) are as follows: • Level 5: growth control rate is above 85%; • Level 4: growth control rate is greater than or equal to 60% and less than 85%; • Level 3: growth control rate is greater than or equal to 40% and less than 60%; • Level 2: growth control rate is greater than or equal to 20% and less than 40%; • Level 1: growth control rate is greater than or equal to 5% and less than 20%; • Level 0: growth control rate is less than 5%.
(§6) Rice field soil was loaded into a 1/1,000,000 ha pot. The seeds of Echinochloa crusgali, Scirpus juncoides, Bidens tripartita, Sagittaria trifolia, Monochoria vaginalis and Leptochloa chinensis were sowed and gently covered with soil, then left to stand still in greenhouse in the state of 0.5-1 cm of water storage. The tuber of Sagittaria trifolia was planted in the next day or 2 days later. It was kept at 3-4 cm of water storage thereafter. The weeds were treated by dripping the WP or SC water diluents prepared according to the common preparation method of the compounds of the present invention with pipette homogeneously to achieve specified effective amount when Echinochloa crusgali, Scirpus juncoides, Bidens tripartita, Monochoria vaginalis and Leptochloa chinensis reached 0.5 leaf stage and Sagittaria trifolia reached the time point of primary leaf stage.
(§7) The fertility condition of Echinochloa crusgali, Scirpus juncoides, Bidens tripartita, Leptochloa chinensis, Sagittaria trifolia and Monochoria vaginalis 14 days after the treatment of the compound of the invention and the fertility condition of rice 21 days after the treatment of the compound of the invention respectively with the naked eye. Evaluate the weed control effect with 0-5 activity standard level. Many compounds show excellent activity and selectivity.

Leptochloa chinensis [9] = assay: Weed control effect evaluation in rice field; conditions: 30 g/ha; rice field pot, 14 days after treatment
Source text: as §5, §6, §7

Echinochloa crusgali [10] = assay: Weed control effect evaluation in rice field; conditions: 30 g/ha; rice field pot, 14 days after treatment; ALS-inhibitor resistant weed from Heilongjiang
Source text: as §5, §6, §7

Monochoria vaginalis = assay: Weed control effect evaluation in rice field; conditions: 30 g/ha; rice field pot, 14 days after treatment; ALS-inhibitor resistant weed from Heilongjiang
Source text: as §5, §6, §7

[11] = 3-4 weeks after sowing, 4-5 leaf-stage of weed, 25 DAA (Table 5)
[12] = 3-4 weeks after sowing, 4-5 leaf-stage of weed
[13] = Table 6, post-seedling test conditions

Compound | Results of comparison experiment, Green Setaria viridis (60 g/ha) (Green Setaria viridis; [12]) | Results of comparison experiment, Abutilon theophrasti (30 g/ha) (Abutilon theophrasti [2]) | Results of comparison experiment, Leptochloa chinensis (60 g/ha) (Leptochloa chinensis [3]) | Results of comparison experiment, Alopecurus japonicas (120 g/ha) (Alopecurus japonicas) | Results of comparison experiment, Digitaria sanguinalis (30 g/ha) (Digitaria sanguinalis [4]) | Results of comparison experiment, Green Setaria viridis (30 g/ha) (Green Setaria viridis; [13]) | pest or weed control at 30 g/ha (Digitaria sanguinalis [4]) | further results
CCC[S+]([O-])c1c(C(F)(F)F)ccc(C(=O)Nc2nnc(C)o2)c1F (single isomer, unassigned) [Control Compound A] | 15% | 0% | 0% |  |  |  |  | Results of comparison experiment, Rice(Longyang 16) (250 g/ha) (Rice(Longyang 16)): 15%; Results of comparison experiment, Rice(Longyang 16) (500 g/ha) (Rice(Longyang 16)): 25%; safety to rice (Longyang 16), in words (Rice(Longyang 16); summary of Table 5): not safe; Results of comparison experiment, Digitaria sanguinalis (30 g/ha) (Digitaria sanguinalis [1]): 0%; Results of comparison experiment, Green Setaria viridis (30 g/ha) (Green Setaria viridis; [11]): 0%; Results of comparison experiment, Leptochloa chinensis (125 g/ha) (Leptochloa chinensis [3]): 10%; activity against key weeds such as Leptochloa chinensis, in words (Leptochloa chinensis [3]; summary of Table 5): lower activity
CCC[S+]([O-])c1c(C(F)(F)F)ccc(C(=O)Nc2nnc(C)o2)c1F (single isomer, unassigned) [Control Compound B] | 90% | 90% | 30% |  |  |  |  | Results of comparison experiment, Rice(Longyang 16) (250 g/ha) (Rice(Longyang 16)): 5%; Results of comparison experiment, Rice(Longyang 16) (500 g/ha) (Rice(Longyang 16)): 15%; Results of comparison experiment, Digitaria sanguinalis (30 g/ha) (Digitaria sanguinalis [1]): 80%; Results of comparison experiment, Green Setaria viridis (30 g/ha) (Green Setaria viridis; [11]): 10%; Results of comparison experiment, Leptochloa chinensis (125 g/ha) (Leptochloa chinensis [3]): 80%
CSc1c(C(=O)Nc2nnc(C)o2)ccc(C(F)(F)F)c1[S@@+](C)[O-] [Compound 547] |  |  |  | 40% | 90% | 80% |  | 
CCC[S@@+]([O-])c1c(C(F)F)ccc(C(=O)Nc2nnc(C)o2)c1F [Compound 637] | 100% | 100% | 90% |  |  |  |  | safety to rice and other crops compared with the corresponding racemate or S configuration (rice and other crops): higher safety; pest or weed control at 30 g/ha (Digitaria sanguinalis [1]; Digitaria sanguinalis, post-emergence, 600 h): 100%; weeding effect in post-emergence stage, activity level (growth control rate), Amaranthus retroflexus (Amaranthus retroflexus): 5 (Level 5: growth control rate is above 85%); weeding effect in post-emergence stage, activity level (growth control rate), Abutilon theophrasti (Abutilon theophrasti [5]): 5 (Level 5: growth control rate is above 85%); weeding effect in post-emergence stage, activity level (growth control rate), Echinochloa crusgali (Echinochloa crusgali [6]): 5 (Level 5: growth control rate is above 85%); weeding effect in post-emergence stage, activity level (growth control rate), Digitaria sanguinalis (Digitaria sanguinalis [7]): 5 (Level 5: growth control rate is above 85%); weeding effect in post-emergence stage, activity level (growth control rate), Setaria viridis (Setaria viridis): 5 (Level 5: growth control rate is above 85%); activity to key weeds such as Digitaria sanguinalis, Leptochloa chinensis compared with the corresponding racemate or S configuration [8]: better activity
CC[S+]([O-])c1c(C(F)(F)F)ccc(C(=O)Nc2nnc(C)o2)c1SC (stereo not drawn) [Control Compound B′] |  |  |  | 0% |  | 30% | 30% | 
CCS(=O)(=O)c1c(C(F)(F)F)ccc(C(=O)Nc2nnc(C)o2)c1SC [Control Compound C′] |  |  |  | 20% |  | 80% | 10% | 
CCSc1c(C(F)(F)F)ccc(C(=O)Nc2nnc(C)o2)c1SC [Control Compound D′] |  |  |  | 0% |  | 20% | 20% | 
CSc1c(C(=O)Nc2nnc(C)o2)ccc(C(F)(F)F)c1[S+](C)[O-] (stereo not drawn) [Control Compound E′] |  |  |  | 15% | 40% | 40% |  | 
CSc1c(C(=O)Nc2nnc(C)o2)ccc(C(F)(F)F)c1[S+](C)[O-] (stereo not drawn) [Control Compound F′] |  |  |  | 0% | 0% | 5% |  | 
COc1cnc(OC)n2nc(NS(=O)(=O)c3c(OCC(F)F)cccc3C(F)(F)F)nc12 [Penoxsulam, reference compound] |  |  |  |  |  |  |  | Herbicidal effects of compounds, Sagittaria trifolia, 0-5 activity standard level (Sagittaria trifolia): 0 (Level 0: growth control rate is less than 5%); Herbicidal effects of compounds, Leptochloa chinensis, 0-5 activity standard level (Leptochloa chinensis [9]): 1 (Level 1: growth control rate is greater than or equal to 5% and less than 20%); Herbicidal effects of compounds, Echinochloa crusgali, 0-5 activity standard level (Echinochloa crusgali [10]): 0 (Level 0: growth control rate is less than 5%); Herbicidal effects of compounds, Monochoria vaginalis, 0-5 activity standard level (Monochoria vaginalis): 1 (Level 1: growth control rate is greater than or equal to 5% and less than 20%)
